Reference: paper PMC2924647 (The EMBO Journal, 2010)
Where two headings read alike, the source gives them in different places. Positions of bridges follow the written chain, without caps; N, C: chain ends. Chains are numbered I, II in the order given. No end group written: not given here.

Legend:
RXFP1 [1] = target: T1, RXFP1 (Rattus norvegicus, UniProt Q6R6I6); assay: Single-cell FRET cAMP; conditions: rat cardiac fibroblasts
T1 sequence (Q6R6I6 1-758): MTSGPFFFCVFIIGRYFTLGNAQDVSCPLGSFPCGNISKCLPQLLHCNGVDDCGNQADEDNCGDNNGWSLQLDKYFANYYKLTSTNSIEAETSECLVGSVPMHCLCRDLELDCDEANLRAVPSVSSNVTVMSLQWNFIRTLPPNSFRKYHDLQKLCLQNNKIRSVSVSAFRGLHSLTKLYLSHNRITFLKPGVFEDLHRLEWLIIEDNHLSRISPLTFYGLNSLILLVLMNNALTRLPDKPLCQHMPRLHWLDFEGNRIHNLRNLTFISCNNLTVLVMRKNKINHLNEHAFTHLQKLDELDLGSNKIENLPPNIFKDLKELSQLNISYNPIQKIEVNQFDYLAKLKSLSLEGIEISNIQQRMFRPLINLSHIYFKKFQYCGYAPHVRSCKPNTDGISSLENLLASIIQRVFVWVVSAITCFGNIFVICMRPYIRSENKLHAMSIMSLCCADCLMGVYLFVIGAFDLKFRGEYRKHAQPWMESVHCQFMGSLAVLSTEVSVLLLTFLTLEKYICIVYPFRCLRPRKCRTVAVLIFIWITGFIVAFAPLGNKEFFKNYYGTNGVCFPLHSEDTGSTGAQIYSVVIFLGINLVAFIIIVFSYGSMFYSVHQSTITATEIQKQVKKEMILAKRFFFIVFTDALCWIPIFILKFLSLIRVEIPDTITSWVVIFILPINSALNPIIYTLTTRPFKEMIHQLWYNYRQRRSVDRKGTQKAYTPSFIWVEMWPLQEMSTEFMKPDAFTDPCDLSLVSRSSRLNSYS

RXFP1 [2] = target: T2, RXFP1 (Homo sapiens, UniProt Q9HBX9); assay: Single-cell FRET cAMP; conditions: HeLa, forskolin 1 μM
T2 sequence (Q9HBX9 1-757): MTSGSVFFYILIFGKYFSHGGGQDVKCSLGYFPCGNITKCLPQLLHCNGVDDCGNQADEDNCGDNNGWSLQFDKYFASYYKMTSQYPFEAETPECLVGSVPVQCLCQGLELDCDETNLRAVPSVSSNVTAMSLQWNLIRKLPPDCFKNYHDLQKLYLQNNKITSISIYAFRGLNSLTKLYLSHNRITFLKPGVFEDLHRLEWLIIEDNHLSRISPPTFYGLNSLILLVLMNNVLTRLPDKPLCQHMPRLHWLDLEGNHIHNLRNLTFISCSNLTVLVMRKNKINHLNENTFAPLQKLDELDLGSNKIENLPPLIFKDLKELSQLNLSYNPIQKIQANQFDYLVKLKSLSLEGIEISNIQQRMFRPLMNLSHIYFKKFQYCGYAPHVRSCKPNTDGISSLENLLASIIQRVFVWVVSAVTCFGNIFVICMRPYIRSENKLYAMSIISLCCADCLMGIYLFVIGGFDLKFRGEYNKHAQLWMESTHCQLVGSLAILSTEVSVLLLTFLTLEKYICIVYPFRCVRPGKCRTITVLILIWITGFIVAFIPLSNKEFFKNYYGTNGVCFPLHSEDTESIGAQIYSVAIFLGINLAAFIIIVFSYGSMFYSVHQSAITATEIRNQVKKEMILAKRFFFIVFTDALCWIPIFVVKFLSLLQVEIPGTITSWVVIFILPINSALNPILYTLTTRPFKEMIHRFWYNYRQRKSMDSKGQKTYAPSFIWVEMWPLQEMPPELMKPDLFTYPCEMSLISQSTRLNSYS

[3] = test system: relaxin-stimulated cAMP via RXFP1; type: cell-based
[4] = test system: basal cAMP in cells expressing RXFP1; type: cell-based
[5] = test system: basal cAMP in cells expressing RXFP2 or pcDNA; assay: Effect of PDE inhibition on basal cAMP, HEK293 expressing RXFP2 or pcDNA; type: cell-based; conditions: IBMX 100 μM, 30 min; RXFP1 versus RXFP2 or pcDNA
HEK293 cells = assay: Single-cell FRET control, HEK293 cells expressing pmEpac2 alone; conditions: no RXFP1, relaxin 1 nM
tRXFP1-703 = assay: Single-cell FRET cAMP
RXFP1 [6] = target: T2, RXFP1; assay: Single-cell FRET cAMP; conditions: first phase, biphasic fit, 5 min AUC, glEpac2, HEK293-RXFP1; mean±s.e.m.
RXFP1 S755A = assay: Single-cell FRET cAMP; conditions: glEpac2
RXFP1 [7] = target: T2, RXFP1; assay: Single-cell FRET cAMP
tRXFP1-747 = assay: Single-cell FRET cAMP; conditions: tRXFP1-747, glEpac2
RXFP2 [8] = target: T3, RXFP2 (Homo sapiens, UniProt Q8WXD0); assay: Single-cell FRET cAMP
T3 sequence (Q8WXD0 whole entry, species assumed): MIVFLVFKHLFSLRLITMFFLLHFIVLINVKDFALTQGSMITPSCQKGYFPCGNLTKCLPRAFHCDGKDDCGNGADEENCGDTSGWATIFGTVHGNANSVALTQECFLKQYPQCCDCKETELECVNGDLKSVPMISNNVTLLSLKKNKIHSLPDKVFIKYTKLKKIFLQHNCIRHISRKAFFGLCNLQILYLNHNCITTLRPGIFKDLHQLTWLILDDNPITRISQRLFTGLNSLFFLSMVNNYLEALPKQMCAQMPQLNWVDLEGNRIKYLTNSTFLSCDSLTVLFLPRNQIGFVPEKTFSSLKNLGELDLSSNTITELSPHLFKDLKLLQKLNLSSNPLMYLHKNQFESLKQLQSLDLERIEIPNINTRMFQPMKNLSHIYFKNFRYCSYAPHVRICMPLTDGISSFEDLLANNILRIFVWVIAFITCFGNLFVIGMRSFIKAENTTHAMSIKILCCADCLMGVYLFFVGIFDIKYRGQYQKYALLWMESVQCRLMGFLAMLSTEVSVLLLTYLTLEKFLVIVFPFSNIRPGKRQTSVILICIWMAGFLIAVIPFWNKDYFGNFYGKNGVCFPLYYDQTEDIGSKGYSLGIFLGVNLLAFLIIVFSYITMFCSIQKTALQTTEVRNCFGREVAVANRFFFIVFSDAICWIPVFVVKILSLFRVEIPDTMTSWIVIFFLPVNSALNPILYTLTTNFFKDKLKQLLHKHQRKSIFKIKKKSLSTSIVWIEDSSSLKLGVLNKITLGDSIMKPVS

RXFP2 [9] = target: T3, RXFP2; assay: Single-cell FRET cAMP; conditions: for cellular response to sub-picomolar peptide: RXFP2, pmEpac2
RXFP1/2 = assay: Single-cell FRET cAMP; conditions: relaxin 10 aM–100 μM, RXFP1/2, pmEpac2
[10] = test system: AC2-HA / RXFP1 signalosome; assay: AC2-HA co-immunoprecipitation from HEK293 cells co-expressing FLAG-RXFP1; conditions: 5 min, n=3
RXFP1 [11] = test system: RXFP1
[12] = test system: PDE4D3 / RXFP1 signalosome; assay: PDE4D3; conditions: 5 min, n=3
RXFP2/1 = assay: Single-cell FRET cAMP; conditions: for EC50: pmEpac2, RXFP2/1

Compound: PTX
- effect on shape of relaxin concentration–response curve (RXFP1 [1]; PTX pre-treatment): revealed a biphasic, stimulatory concentration–response curve
- effect on shape of relaxin concentration–response curve (RXFP1 [2]; PTX 100 ng/ml, 16 h): revealed the biphasic concentration–response curve
- effect on cAMP response to sub-picomolar (10 fM) relaxin [3]: did not affect the cAMP response to sub-picomolar concentrations of relaxin
- effect on maximal / classical cAMP response to relaxin [3]: the maximal cAMP response to relaxin was enhanced

Compound: CCCCOc1cc(CC2CNC(=O)N2)ccc1OC (centres unmarked) [Ro 20-1724]
- effect on basal cAMP [4]: significantly increased basal cAMP
- effect on cAMP response to sub-picomolar (10 fM) relaxin [3]: no further increase following stimulation with 10 fM relaxin

Compound: CC(C)Cn1c(=O)n(C)c(=O)c2[nH]cnc21 [IBMX, 3-isobutyl-1-methylxanthine]
- effect on basal cAMP, RXFP1-dependence [5]: significantly increased basal cAMP only in cells expressing RXFP1
- effect on basal cAMP [4]: significantly increased basal cAMP
- effect on biphasic relaxin concentration–response curve [3]: abolished the biphasic concentration–response curve
- effect on cAMP response to sub-picomolar (10 fM) relaxin [3]: no further increase following stimulation with 10 fM relaxin

Compound: O=C1OC2(c3ccccc31)c1ccc(O)c(O)c1Oc1c2ccc(O)c1O [gallein]
- effect on cAMP response to sub-picomolar (10 fM) relaxin [3]: completely abolished the cAMP accumulation stimulated by 10 fM relaxin

Compound: O=C(Nc1cc(C(=O)Nc2ccc(S(=O)(=O)O)cc2S(=O)(=O)O)cc(C(=O)Nc2ccc(S(=O)(=O)O)cc2S(=O)(=O)O)c1)Nc1cc(C(=O)Nc2ccc(S(=O)(=O)O)cc2S(=O)(=O)O)cc(C(=O)Nc2ccc(S(=O)(=O)O)cc2S(=O)(=O)O)c1 [NF449]
- effect on cAMP response to sub-picomolar (10 fM) relaxin [3]: significantly inhibited the 10 fM relaxin response

Compound: cholera toxin
- effect on basal cAMP [4]: potentiated basal
- effect on cAMP response to sub-picomolar (10 fM) relaxin [3]: response to 10 fM relaxin reaching the maximal relaxin response

Compound: Relaxin
- cAMP response (HEK293 cells): no detectable cAMP response
- cAMP response to sub-picomolar relaxin (RXFP1 [1]; forskolin 1 μM, without PTX): significant increase in cAMP, which then declined within the classical concentration range
- response to sub-picomolar relaxin (tRXFP1-703; tRXFP1-703 (truncated following helix 8), glEpac2): remained responsive to stimulation with sub-picomolar concentrations of relaxin
- maximal cAMP response to relaxin (tRXFP1-703; tRXFP1-703, glEpac2): reduced following truncation
- Relaxin EC50 1 (RXFP1 [6]): 140.34±20.73 aM
- cAMP response to sub-picomolar relaxin, effect of mutation (RXFP1 S755A): no effect
- Relaxin EC50 1 (RXFP1 [7]; first phase, biphasic fit, 5 min AUC, pmEpac2, HEK293-RXFP1, mean±s.e.m.): 10.93±0.92 aM
- saturation of pmEpac2 sensor / response relative to FIP (RXFP1 [7]; maximal relaxin 100 nM versus FIP (10 μM forskolin, 100 μM IBMX, 100 nM PGE1)): did not saturate the pmEpac2 sensor
- cAMP response to relaxin (RXFP1 [2]; without PTX, glEpac2): significant concentration-dependent increase in cAMP, which was maintained within the classical relaxin concentration range
- cAMP response to sub-picomolar relaxin, effect of mutation (tRXFP1-747): no effect
- maximal cAMP response to relaxin (tRXFP1-747): reduced through tRXFP1-747
- EC50 (RXFP2 [8]; read-out: Relaxin EC50 2, glEpac2, HEK293-RXFP2, 5 min AUC, mean±s.e.m.): 57.7 ± 6.94 nM
- cellular response to sub-picomolar peptide (RXFP2 [9]): no evidence of a cellular response
- EC50 (RXFP2 [9]; read-out: Relaxin EC50 2, pmEpac2, HEK293-RXFP2, 5 min AUC, mean±s.e.m.): 18.1 ± 3.84 nM
- biphasic cAMP response (RXFP1/2): not RXFP1/2
- association of AC2 with RXFP1 / stimulatory sub-complex ([10]; relaxin 10 nM): reduces the association between RXFP1 and PDE4D3 or AC2
- association of AC2 with RXFP1 / stimulatory sub-complex ([10]; relaxin 10 fM): not 10 fM
- cAMP response (RXFP1 [11]): no detectable cAMP response
- association of PDE4D3 with RXFP1 / regulatory sub-complex ([12]; relaxin 10 nM): reduces the association between RXFP1 and PDE4D3 or AC2
- association of PDE4D3 with RXFP1 / regulatory sub-complex ([12]; relaxin 10 fM): not 10 fM
- cAMP accumulation at sub-picomolar concentrations (RXFP2/1; RXFP2/1, pmEpac2): increased cAMP accumulation at sub-picomolar concentrations
- Relaxin EC50 1 (RXFP2/1; first phase, pmEpac2, RXFP2/1 (RXFP2-ectodomain, RXFP1-transmembrane/C-terminus), mean±s.e.m.): 7.86±1.30 aM
- EC50 (RXFP2/1; read-out: Relaxin EC50 2, second phase, mean±s.e.m.): 0.33 ± 0.08 nM
- biphasic cAMP response (RXFP2/1; relaxin 10 aM–100 μM, RXFP2/1, pmEpac2): a biphasic response was evident

Compound: O=S(=O)(NCCNC/C=C/c1ccc(Br)cc1)c1cccc2cnccc12 [H89]
- effect on basal cAMP [4]: basal cAMP levels were significantly increased
- effect on cAMP response to sub-picomolar (10 fM) relaxin [3]: no further increase in cAMP

Compound: CCCCCCOC(=O)[C@]1(O)C[C@@H]2O[C@@]1(C)n1c3ccccc3c3c4c(c5c6ccccc6n2c5c31)C(=O)NC4 [KT5720]
- effect on basal cAMP [4]: basal cAMP levels were significantly increased
- effect on cAMP response to sub-picomolar (10 fM) relaxin [3]: no further increase in cAMP

Compound: I: PTPEMREKLCGHHFVRALVRVCGGPRWSTEA / II: AAATNPARYCCLSGCTQQDLLTLCPY (disulfide I:10-II:11, I:22-II:24, II:10-II:15) [INSL3]
- EC50 (RXFP2 [8]): 7.74 ± 1.67 nM
- EC50 (RXFP2 [9]): 1.42 ± 0.92 nM
- cellular response to sub-picomolar peptide (RXFP2 [9]): no evidence of a cellular response
- cAMP accumulation at sub-picomolar concentrations (RXFP2/1; RXFP2/1, pmEpac2): not the closely related peptide INSL3, increased cAMP accumulation at sub-picomolar concentrations
- EC50 (RXFP2/1; read-out: INSL3 EC50, mean±s.e.m.): 0.26 ± 0.04 nM

Compound: CN(C(=O)CCCOc1ccc2[nH]c(=O)ccc2c1)C1CCCCC1 [cilostamide]
- effect on basal cAMP [4]: no significant effect
- effect on cAMP response to sub-picomolar (10 fM) relaxin [3]: remained responsive to stimulation with 10 fM relaxin

Compound: C[C@H]1O[C@@H](n2cnc3c(N)ncnc32)C[C@@H]1OP(=O)(OCCSC(=O)C(C)(C)C)OCCSC(=O)C(C)(C)C [ddAB, 2′,5′-dd-3′-AMP-bis(tBuSATE)]
- effect on cAMP response to sub-picomolar (10 fM) relaxin [3]: completely abolished the response to 10 fM relaxin
